Measured values reported in patent US20220402862A1 (Intellia Therapeutics, Inc., priority 2019, published 2022).

Experiments:
[1] = RNA encapsulation efficiency of LNPs (Ribogreen fluorescence assay); assay type: physicochemical; details: LNP, sg:mRNA 1:1, N/P about 6, amine lipid/DSPC/cholesterol/PEG-2k-DMG 50/9/38/3; Table 2, Experiments 2-20
Method in brief: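 Encapsulation efficiency is (Total RNA − Free RNA)/Total RNA. Free RNA was quantified by RiboGreen fluorescence (488/525 nm, ~10 min, RT, dark) in plain TE buffer; total RNA was quantified after LNP lysis with 0.2% Triton X-100, both against RNA standard curves.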

[2] = Dynamic light scattering of LNPs: Z-average diameter, number average diameter, PDI; assay type: physicochemical; details: LNP, sg:mRNA 1:1, N/P about 6, 50/9/38/3; Table 2, Experiments 2-20
Method in brief: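 Values reported are the Z-average (intensity-weighted mean size), the number-average diameter and the PDI (spread of sizes, 0 = fully uniform). All three came from dynamic light scattering of LNP preparations after dilution in PBS.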

[3] = pKa measurement of unformulated amine lipid (fluorescence, method of Jayaraman et al.); assay type: physicochemical; details: 100 μM in 0.1 M phosphate buffer, pH 2.0-12.0
Procedure: The pKa of each amine lipid was determined according to the method in Jayaraman, et al. (Angewandte Chemie, 2012) with the following adaptations. […] Lipid was diluted to 100 μM in 0.1 M phosphate buffer (Boston Bioproducts) where the pH ranged from 2.0-12.0. Fluorescence intensity was measured using excitation and emission wavelengths of 321 nm and 448 nm.

[4] = tested on: Transthyretin (TTR); experiment: Serum TTR ELISA in mice after LNP dosing; assay type: in vivo, CD-1 female mice; details: guide G282 experiments; for Serum TTR % TSS: mouse serum TTR relative to TSS control; for Serum TTR: mouse serum, ELISA
Method in brief: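 Serum mouse TTR was quantified by ELISA at 10,000-fold dilution for 0.1 mg/kg and 10,000/2,500-fold for 0.3 mg/kg. Samples came from female CD-1 mice (6–10 weeks) killed 6 or 7 days after a single intravenous LNP dose, usually 0.1 mg/kg.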

Row | SMILES | Encapsulation (%) [1] [%] | Number mean (nm) [2] [nm] | PDI [2] | Z-avg (nm) [2] [nm] | pKa [3] | Serum TTR % TSS [4] [%] | Serum TTR [4] [µg/mL]
1 | CCCCC/C=C\C/C=C\CCCCCCCC(=O)OCC(COC(=O)CCCCN(CC)CC)COC(=O)CCC(OCCCCCCCC)OCCCCCCCC (centres unmarked) [Compound 28, 3-((4,4-bis(octyloxy)butanoyl)oxy)-2-(((5-(diethylamino)pentanoyl)oxy)methyl)propyl (9Z,12Z)-octadeca-9,12-dienoate] | 98 | 68 | 0.010 | 83 | 7.3 | 73 | 661
2 | CCCCCCCCCCCCCCOC(=O)CCCCCCCC(=O)OCC(COC(=O)CCC(OCCCCCCCC)OCCCCCCCC)COC(=O)OCCCN(CC)CC (centres unmarked) [Compound 93, 1-(3-((4,4-bis(octyloxy)butanoyl)oxy)-2-((((3-(diethylamino)propoxy)carbonyl)oxy)methyl)propyl) 9-tetradecyl nonanedioate] | 98 | 78.73 | 0.004 | 95.19 | 6.15 | 88 | 669
3 | CCCCCCCCCCOC(=O)CCCCCCCCCCCC(=O)OCC(COC(=O)CCC(OCCCCCCCC)OCCCCCCCC)COC(=O)OCCCN(CC)CC (centres unmarked) [Compound 91, 1-(3-((4,4-bis(octyloxy)butanoyl)oxy)-2-((((3-(diethylamino)propoxy)carbonyl)oxy)methyl)propyl) 13-decyl tridecanedioate] | 99 | 75.67 | 0.028 | 93.13 | 6.08 | 84 | 633
4 | CCCCCCCCCCOC(=O)CCCCCCCC(=O)OCC(COC(=O)CCCC(=O)OC(CCCCCCCC)CCCCCCCC)COC(=O)OCCCN(CC)CC (centres unmarked) [Compound 77, 1-decyl 9-(3-(((3-(diethylamino)propoxy)carbonyl)oxy)-2-(((5-(heptadecan-9-yloxy)-5-oxopentanoyl)oxy)methyl)propyl) nonanedioate] | 99 | 85.4 | 0.006 | 101.8 | 6.16 | 53 | 478
5 | CCCCC/C=C\C/C=C\CCCCCCCC(=O)OCC(COC(=O)CCC(OCCCCCCCC)OCCCCCCCC)COC(=O)OCC1CCN(CC)C1 (centres unmarked) [Compound 51, 3-((4,4-bis(octyloxy)butanoyl)oxy)-2-(((((1-ethylpyrrolidin-3-yl)methoxy)carbonyl)oxy)methyl)propyl (9Z,12Z)-octadeca-9,12-dienoate] | 98 | 72.23 | 0.018 | 86.15 | 7.3 | 76 | 843
6 | CCCCC/C=C\C/C=C\CCCCCCCC(=O)OCC(COC(=O)CCC(OCCCCCCCC)OCCCCCCCC)COC(=O)NC1CCCN(C)C1 (centres unmarked) [Compound 42, 3-((4,4-bis(octyloxy)butanoyl)oxy)-2-((((1-methylpiperidin-3-yl)carbamoyl)oxy)methyl)propyl (9Z,12Z)-octadeca-9,12-dienoate] | 99 | 58.66 | 0.027 | 74.03 | 6.9 | 81 | 902
7 | CCCCCCCCCCOC(=O)CCCCCCCC(=O)OCC(COC(=O)CCCCCC(=O)OC(CCCCCCCC)CCCCCCCC)COC(=O)OCCCN(CC)CC (centres unmarked) [Compound 76, 1-decyl 9-(3-(((3-(diethylamino)propoxy)carbonyl)oxy)-2-(((7-(heptadecan-9-yloxy)-7-oxoheptanoyl)oxy)methyl)propyl) nonanedioate] | 99 | 80.2 | 0.097 | 111.8 | 6.17 | 81 | 735
8 | CCCCCCCCCCCCOC(=O)CCCCCCCC(=O)OCC(COC(=O)CCC(OCCCCCCCC)OCCCCCCCC)COC(=O)OCCCN(CC)CC (centres unmarked) [Compound 92, 1-(3-((4,4-bis(octyloxy)butanoyl)oxy)-2-((((3-(diethylamino)propoxy)carbonyl)oxy)methyl)propyl) 9-dodecyl nonanedioate] | 99 | 77.35 | 0.022 | 93.69 | 6.16 | 62 | 470
9 | CCCCCCCCCCOC(=O)CCCCCCCC(=O)OCC(COC(=O)CCC(OCCCCCCCC)OCCCCCCCC)COC(=O)OCC1CCCN(C)C1 (centres unmarked) [Compound 71, 1-(3-((4,4-bis(octyloxy)butanoyl)oxy)-2-(((((1-methylpiperidin-3-yl)methoxy)carbonyl)oxy)methyl)propyl) 9-decyl nonanedioate] | 99 | 76.95 | 0.035 | 95.57 | 6.44 | 50 | 462
10 | CCCCCC/C=C\COC(=O)CCCCCCCC(=O)OCC(COC(=O)CCCC(=O)OC(CCCCCCCC)CCCCCCCC)COC(=O)OCCCN(CC)CC (centres unmarked) [Compound 86, (Z)-1-(3-(((3-(diethylamino)propoxy)carbonyl)oxy)-2-(((5-(heptadecan-9-yloxy)-5-oxopentanoyl)oxy)methyl)propyl) 9-(non-2-en-1-yl) nonanedioate] | 98 | 81.23 | 0.016 | 99.01 | 6.16 | 64 | 582
11 | CCCCC/C=C\C/C=C\CCCCCCCC(=O)OCC(COC(=O)CCC(OCCCCCCCC)OCCCCCCCC)COC(=O)NC(C)CN(C)C (centres unmarked) [Compound 45, 3-((4,4-bis(octyloxy)butanoyl)oxy)-2-((((1-(dimethylamino)propan-2-yl)carbamoyl)oxy)methyl)propyl (9Z,12Z)-octadeca-9,12-dienoate] | 98 | 69.23 | 0.007 | 82.93 | 7.3 | 98 | 1096
